Data from ChEMBL document CHEMBL3797052 (Eur J Med Chem, 2016).

Key:
Format in all cases: functional
[1] = test system: MDA-MB-231; assay: Antiproliferative activity against human MDA-MB-231 cells assessed as cell growth at 10^-5 M after 48 hrs by sulforhodamine B assay; conditions: MDA-MB-231, 48 h, read-out: Activity
[2] = Antiproliferative activity against human PC3 cells assessed as cell growth at 10^-5 M after 48 hrs by sulforhodamine B assay; conditions: PC-3, 48 h, read-out: Activity
[3] = test system: A498; assay: Antiproliferative activity against human A498 cells assessed as cell growth at 10^-5 M after 48 hrs by sulforhodamine B assay; conditions: A498, 48 h, read-out: Activity
[4] = test system: NCI-H23; assay: Antiproliferative activity against human NCI-H23 cells assessed as cell growth at 10^-5 M after 48 hrs by sulforhodamine B assay; conditions: NCI-H23, 48 h, read-out: Activity
[5] = Cytotoxicity against human HCT116 cells assessed as growth inhibition at 100 uM after 2 days by MTT assay; conditions: HCT-116, 48 h, read-out: GI
[6] = Antiproliferative activity against human UACC257 cells assessed as cell growth at 10^-5 M after 48 hrs by sulforhodamine B assay; conditions: UACC-257, 48 h, read-out: Activity
[7] = Antiproliferative activity against human OVCAR8 cells assessed as cell growth at 10^-5 M after 48 hrs by sulforhodamine B assay; conditions: OVCAR-8, 48 h, read-out: Activity
[8] = Antiproliferative activity against human BT549 cells assessed as cell growth at 10^-5 M after 48 hrs by sulforhodamine B assay; conditions: BT-549, 48 h, read-out: Activity
[9] = Antiproliferative activity against human HCT15 cells assessed as cell growth at 10^-5 M after 48 hrs by sulforhodamine B assay; conditions: HCT-15, 48 h, read-out: Activity
[10] = Antiproliferative activity against human IGROV1 cells assessed as cell growth at 10^-5 M after 48 hrs by sulforhodamine B assay; conditions: IGROV-1, 48 h, read-out: Activity
[11] = Antiproliferative activity against human DU145 cells assessed as cell growth at 10^-5 M after 48 hrs by sulforhodamine B assay; conditions: DU-145, 48 h, read-out: Activity
[12] = test system: MDA-MB-468; assay: Antiproliferative activity against human MDA-MB-468 cells assessed as cell growth at 10^-5 M after 48 hrs by sulforhodamine B assay; conditions: MDA-MB-468, 48 h, read-out: Activity
[13] = Cytotoxicity against human HCT116 cells assessed as growth inhibition at 10 uM after 2 days by MTT assay; conditions: HCT-116, 48 h, read-out: GI
[14] = Cytotoxicity against human SKBR3 cells assessed as growth inhibition at 10 uM after 2 days by MTT assay; conditions: SK-BR-3, 48 h, read-out: GI
[15] = test system: 786-0; assay: Antiproliferative activity against human 786-0 cells assessed as cell growth at 10^-5 M after 48 hrs by sulforhodamine B assay; conditions: 786-0, 48 h, read-out: Activity
[16] = Antiproliferative activity against human OVCAR3 cells assessed as cell growth at 10^-5 M after 48 hrs by sulforhodamine B assay; conditions: OVCAR-3, 48 h, read-out: Activity
[17] = Antiproliferative activity against human Caki1 cells assessed as cell growth at 10^-5 M after 48 hrs by sulforhodamine B assay; conditions: CAKI-1, 48 h, read-out: Activity
[18] = Antiproliferative activity against human SF268 cells assessed as cell growth at 10^-5 M after 48 hrs by sulforhodamine B assay; conditions: SF-268, 48 h, read-out: Activity
[19] = Antiproliferative activity against human OVCAR4 cells assessed as cell growth at 10^-5 M after 48 hrs by sulforhodamine B assay; conditions: OVCAR-4, 48 h, read-out: Activity
[20] = Antiproliferative activity against human Hs 578T cells assessed as cell growth at 10^-5 M after 48 hrs by sulforhodamine B assay; conditions: read-out: Activity
[21] = test system: KM12; assay: Antiproliferative activity against human KM12 cells assessed as cell growth at 10^-5 M after 48 hrs by sulforhodamine B assay; conditions: KM12, 48 h, read-out: Activity
[22] = test system: NCI-H226; assay: Antiproliferative activity against human NCI-H226 cells assessed as cell growth at 10^-5 M after 48 hrs by sulforhodamine B assay; conditions: NCI-H226, 48 h, read-out: Activity
[23] = Antiproliferative activity against human COLO205 cells assessed as cell growth at 10^-5 M after 48 hrs by sulforhodamine B assay; conditions: COLO 205, 48 h, read-out: Activity
[24] = Antiproliferative activity against human SW620 cells assessed as cell growth at 10^-5 M after 48 hrs by sulforhodamine B assay; conditions: SW-620, 48 h, read-out: Activity
[25] = Antiproliferative activity against human HL-60(TB) cells assessed as cell growth at 10^-5 M after 48 hrs by sulforhodamine B assay; conditions: HL-60, 48 h, read-out: Activity
[26] = Antiproliferative activity against human HCC2998 cells assessed as cell growth at 10^-5 M after 48 hrs by sulforhodamine B assay; conditions: HCC 2998, 48 h, read-out: Activity
[27] = test system: CCRF-CEM; assay: Antiproliferative activity against human CCRF-CEM cells assessed as cell growth at 10^-5 M after 48 hrs by sulforhodamine B assay; conditions: read-out: Activity
[28] = test system: SK-MEL-2; assay: Antiproliferative activity against human SK-MEL-2 cells assessed as cell growth at 10^-5 M after 48 hrs by sulforhodamine B assay; conditions: SK-MEL-2, 48 h, read-out: Activity
[29] = test system: NCI-H322M; assay: Antiproliferative activity against human NCI-H322M cells assessed as cell growth at 10^-5 M after 48 hrs by sulforhodamine B assay; conditions: read-out: Activity
[30] = Cytotoxicity against human SKBR3 cells assessed as growth inhibition at 100 uM after 2 days by MTT assay; conditions: SK-BR-3, 48 h, read-out: GI
[31] = test system: SN12C; assay: Antiproliferative activity against human SN12C cells assessed as cell growth at 10^-5 M after 48 hrs by sulforhodamine B assay; conditions: read-out: Activity
[32] = Antiproliferative activity against human OVCAR5 cells assessed as cell growth at 10^-5 M after 48 hrs by sulforhodamine B assay; conditions: OVCAR-5, 48 h, read-out: Activity
[33] = Antiproliferative activity against human SKOV3 cells assessed as cell growth at 10^-5 M after 48 hrs by sulforhodamine B assay; conditions: SK-OV-3, 48 h, read-out: Activity
[34] = Antiproliferative activity against human HOP92 cells assessed as cell growth at 10^-5 M after 48 hrs by sulforhodamine B assay; conditions: HOP-92, 48 h, read-out: Activity
[35] = test system: MDA-MB-435; assay: Antiproliferative activity against human MDA-MB-435 cells assessed as cell growth at 10^-5 M after 48 hrs by sulforhodamine B assay; conditions: MDA-MB-435, 48 h, read-out: Activity
[36] = test system: A549; assay: Antiproliferative activity against human A549/ATCC cells assessed as cell growth at 10^-5 M after 48 hrs by sulforhodamine B assay; conditions: A549, 48 h, read-out: Activity
[37] = Antiproliferative activity against human SNB19 cells assessed as cell growth at 10^-5 M after 48 hrs by sulforhodamine B assay; conditions: SNB-19, 48 h, read-out: Activity

Structure (SMILES) | growth at 10 µM [1] [%] | growth at 10 µM [2] [%] | growth at 10 µM [3] [%] | growth at 10 µM [4] [%] | inhibition of growth at 100 µM [5] [%] | growth at 10 µM [7] [%] | growth at 10 µM [8] [%] | growth at 10 µM [9] [%] | growth at 10 µM [10] [%] | growth at 10 µM [11] [%] | growth at 10 µM [12] [%] | inhibition of growth at 10 µM [13] [%] | inhibition of growth at 10 µM [14] [%] | growth at 10 µM [16] [%] | growth at 10 µM [17] [%] | growth at 10 µM [18] [%] | growth at 10 µM [19] [%] | growth at 10 µM [20] [%] | growth at 10 µM [21] [%] | inhibition of growth at 100 µM [30] [%] | also measured
CNC(=O)c1cc(Oc2ccc3nc(NC(=O)Nc4ccc(Cl)c(C(F)(F)F)c4)sc3c2)ccn1 | -38 | -67 | 4 | -8 | 94.4 | -40 | -1 | -9 | -36 | -10 | -40 | 82.8 | 79.6 | -70 | -16 | 1 | -75 | -17 | 20 | 94.5 | growth at 10 µM [6]: 14%; growth at 10 µM [15]: -64%; growth at 10 µM [22]: -14%; growth at 10 µM [23]: -11%; growth at 10 µM [24]: 4%; growth at 10 µM [25]: 52%; growth at 10 µM [26]: 20%; growth at 10 µM [27]: 22%; growth at 10 µM [28]: 37%; growth at 10 µM [29]: -14%; growth at 10 µM [31]: 1%; growth at 10 µM [32]: -13%; growth at 10 µM [33]: -54%; growth at 10 µM [34]: -54%; growth at 10 µM [35]: -36%; growth at 10 µM [36]: -50%
CNC(=O)c1cc(Oc2ccc3nc(NC(=O)Nc4ccc(Cl)cc4)sc3c2)ccn1 | 34.4 | 66 | 117 | 69 | 85.2 | 57.2 | 102 | 84.8 | 83.6 | 53.2 | 55.1 | 57.4 | 50.8 | 48.8 | 94.7 | 56.2 | 13 | 30.1 | 70 | 77.4 | growth at 10 µM [15]: 75.3%; growth at 10 µM [22]: 67.9%; growth at 10 µM [23]: 79.4%; growth at 10 µM [24]: 101%; growth at 10 µM [25]: 98.9%; growth at 10 µM [26]: 86.5%; growth at 10 µM [27]: 83.2%; growth at 10 µM [28]: 81.1%; growth at 10 µM [29]: 66.8%; growth at 10 µM [31]: 62.4%; growth at 10 µM [32]: 92.3%; growth at 10 µM [33]: 82%; growth at 10 µM [34]: 63.3%; growth at 10 µM [35]: 64.1%; growth at 10 µM [37]: 59.3%; growth at 10 µM [36]: 44.1%
CNC(=O)c1cc(Oc2ccc(NC(=O)Nc3ccc(Cl)c(C(F)(F)F)c3)cc2)ccn1 [SORAFENIB] | – | – | – | – | 97.3 | – | – | – | – | – | – | 48.4 | 48.9 | – | – | – | – | – | – | 93.1 | –
CNC(=O)c1cc(Oc2ccc3nc(NC(=O)c4ccc(Cl)c(C(F)(F)F)c4)sc3c2)ccn1 | 75.3 | 62.7 | 69 | 69.1 | 92.3 | 57.2 | 80.6 | 85 | 85.8 | 73 | 48.5 | 30.2 | 6.26 | 66.4 | 95.2 | 85.3 | 36.7 | 66.2 | 67.7 | 86.5 | growth at 10 µM [6]: 75.3%; growth at 10 µM [22]: 93.4%; growth at 10 µM [23]: 80.4%; growth at 10 µM [24]: 92.4%; growth at 10 µM [25]: 89.4%; growth at 10 µM [26]: 74.8%; growth at 10 µM [27]: 68.4%; growth at 10 µM [28]: 96.5%; growth at 10 µM [29]: 87.4%; growth at 10 µM [31]: 75.6%; growth at 10 µM [32]: 93.3%; growth at 10 µM [33]: 85.3%; growth at 10 µM [35]: 80.4%; growth at 10 µM [36]: 71.7%
CNC(=O)c1cc(Oc2ccc3nc(NC(=O)Nc4ccc(Cl)c(Cl)c4)sc3c2)ccn1 | -20 | -53 | -25 | 2 | 91.9 | -40 | 26 | -19 | -20 | -25 | -36 | 69.8 | 69 | -37 | -25 | -57 | -68 | -23 | 5 | 92.6 | growth at 10 µM [6]: -23%; growth at 10 µM [15]: -41%; growth at 10 µM [22]: -56%; growth at 10 µM [23]: 16%; growth at 10 µM [24]: 42%; growth at 10 µM [25]: 95%; growth at 10 µM [26]: 29%; growth at 10 µM [27]: 76%; growth at 10 µM [28]: -30%; growth at 10 µM [29]: -4%; growth at 10 µM [31]: 14%; growth at 10 µM [33]: -74%; growth at 10 µM [34]: -44%; growth at 10 µM [35]: -47%; growth at 10 µM [37]: -67%; growth at 10 µM [36]: -62%
CNC(=O)c1cc(Oc2ccc3nc(NC(=O)c4ccc5ncccc5c4)sc3c2)ccn1 | 98.6 | 93.2 | 88.3 | 92.7 | 72.3 | 100 | 82.3 | 91.1 | 93.3 | 105 | 73.7 | 22.5 | 17.1 | 98.9 | 89.9 | 97.5 | 87.4 | 108 | 101 | 29.6 | growth at 10 µM [6]: 93.1%; growth at 10 µM [15]: 98.4%; growth at 10 µM [22]: 68.6%; growth at 10 µM [23]: 95.8%; growth at 10 µM [24]: 112%; growth at 10 µM [25]: 87.5%; growth at 10 µM [26]: 106%; growth at 10 µM [27]: 91%; growth at 10 µM [28]: 86.2%; growth at 10 µM [29]: 99%; growth at 10 µM [31]: 92.6%; growth at 10 µM [32]: 106%; growth at 10 µM [34]: 110%; growth at 10 µM [35]: 91.6%; growth at 10 µM [37]: 95.1%; growth at 10 µM [36]: 76.5%
